Tests used:
[1] = test system: weeds; experiment: germination-preventing action in treated soil; type: in vivo; settings: minimum amounts of 4 g per square meter of soil
[2] = cited from earlier work

SMILES: C=CCN=C=S [allyl isothiocyanate, Allyl isothiocyanate]
- germination-preventing action [1]: marked germination-preventing action
- vapour pressure at 25° C. [2]: 5 mmHg

SMILES: CN=C=S [methyl isothiocyanate, reference compound]
- vapour pressure at 25° C. [2]: 19 mmHg
